Measurements from publication PMC10095747, “Modulatory Effects of Atractylodin and β-Eudesmol on Human Cytochrome P450 Enzymes: Potential Drug-Drug Interactions” (Molecules, 2023).
Read-outs that look alike come from different tables or passages of the source.

Columns and labels:
rCYP2C19 = rCYP2C19 (Homo sapiens, UniProt P33261); experiment: luminogenic P450-Glo CYP450 inhibition assay, rCYP2C19; settings: three independent experiments
Source text: (§1) The luminescent cytochrome P450 assay was used to determine CYP450-mediated (CYP1A2, 2C9, 2C19, 2D6, and 3A4) metabolism of atractylodin and β-eudesmol. The assay consisted of each recombinant human CYP450 (rCYP450), control membranes lacking P450 activity, a luminogenic CYP450 substrate (luciferin-ME substrate for rCYP1A2, luciferin-H substrate for rCYP2C9, luciferin-H EGE substrate for rCYP2C19, luciferin-ME EGE substrate for rCYP2D6, and luciferin-IPA substrate for rCYP3A4), KPO4 buffer, luciferin free water, NADPH regeneration system, and a luciferin detection reagent. The rCYP450 enzymes were generated from a baculovirus-infected insect cell expression system. The concentrations of the recombinant CYPs used were 0.5 (rCYP1A2 and rCYP2C9), 0.25 (rCYP2C19 and rCYP2D6) or 0.2 (rCYP3A4) pmol (0.5μL) per reaction. […] A luciferin product was produced after adding 25 µL of NADPH Regeneration System (solution A, solution B, and luciferin-free water) and incubated at 37 °C for 10 (rCYP1A2 and rCYP3A4), 20 (rCYP2C19 and rCYP2C9) or 30 (rCYP2D6) minutes. The reaction was stopped and converted to a luminescent signal after adding Luciferin Detection Reagent (50 µL) and incubated at 25 °C for 20 min. The luminescence signals obtained were determined using a Varioskan® Flash microplate reader (Waltham, MA, USA). The magnitude of luminescence in all of the samples represented CYP450 activity. […] All stock solutions were diluted with luciferin-free water until the final concentration of organic solvent was less than 0.25% (v/v) of the total reaction. The concentration range of atractylodin and β-eudesmol used were 2.74–686 µM and 2.25–562 µM, respectively. […] The concentration that inhibited the activity of each rCYP450 by 50% (IC50) was calculated using Calcusyn software (Cambridge, UK). Data are reported as the median (range) of the three independent experiments.

rCYP2D6 = rCYP2D6 (Homo sapiens, UniProt P10635); experiment: luminogenic P450-Glo CYP450 inhibition assay, rCYP2D6; settings: three independent experiments
rCYP2D6, sequence (P10635 whole entry): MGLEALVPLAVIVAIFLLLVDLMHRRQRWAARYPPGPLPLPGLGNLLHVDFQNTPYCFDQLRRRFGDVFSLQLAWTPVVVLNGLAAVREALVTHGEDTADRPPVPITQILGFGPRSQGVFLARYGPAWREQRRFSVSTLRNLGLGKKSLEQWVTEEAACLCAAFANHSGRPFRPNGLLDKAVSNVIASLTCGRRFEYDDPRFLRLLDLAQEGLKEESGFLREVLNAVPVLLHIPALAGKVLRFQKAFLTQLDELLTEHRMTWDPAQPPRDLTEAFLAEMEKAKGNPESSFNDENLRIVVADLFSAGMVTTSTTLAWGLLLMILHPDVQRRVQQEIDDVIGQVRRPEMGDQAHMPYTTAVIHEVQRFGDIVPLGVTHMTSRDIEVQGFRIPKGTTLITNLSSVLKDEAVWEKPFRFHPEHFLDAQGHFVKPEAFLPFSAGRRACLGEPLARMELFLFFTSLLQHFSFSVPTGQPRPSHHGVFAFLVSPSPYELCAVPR
Source text: as §1

rCYP3A4 = rCYP3A4 (Homo sapiens, UniProt P08684); experiment: luminogenic P450-Glo CYP450 inhibition assay, rCYP3A4; settings: three independent experiments
rCYP3A4, sequence (P08684 whole entry): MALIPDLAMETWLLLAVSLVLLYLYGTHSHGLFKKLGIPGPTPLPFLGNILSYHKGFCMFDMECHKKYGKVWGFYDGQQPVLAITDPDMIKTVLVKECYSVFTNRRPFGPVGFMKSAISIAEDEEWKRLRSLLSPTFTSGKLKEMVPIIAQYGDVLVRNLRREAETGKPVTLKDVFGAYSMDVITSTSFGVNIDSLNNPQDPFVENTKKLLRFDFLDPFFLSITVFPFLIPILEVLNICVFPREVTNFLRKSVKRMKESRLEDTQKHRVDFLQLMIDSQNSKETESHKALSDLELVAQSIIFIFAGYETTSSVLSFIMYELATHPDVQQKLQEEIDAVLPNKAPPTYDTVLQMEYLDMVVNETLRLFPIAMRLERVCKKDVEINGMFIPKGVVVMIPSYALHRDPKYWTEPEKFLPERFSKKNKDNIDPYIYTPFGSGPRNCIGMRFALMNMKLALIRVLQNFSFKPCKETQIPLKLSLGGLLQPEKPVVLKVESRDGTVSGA
Source text: as §1

mCYP1A2 mRNA = experiment: ex vivo mCYP1A2 mRNA expression in mouse livers (real-time PCR); settings: male ICR mice, daily oral 100 mg/kg body weight, vs control
Source text: (§2) Eight-week-old male ICR (Imprinting Control Region) mice weighing 35–40 g were used to investigate the modulatory effects of atractylodin and β-eudesmol on mCYP1A2 and mCYP3A11. The study protocol was approved by the Ethics Committee for Animal Research at Thammasat University (protocol number 016/2020). All animals were obtained from Nomura Siam International Co., Ltd. (Bangkok, Thailand). The animals were acclimatized for one week before the experiments. A total of 36 mice were allocated to three groups (i) control group (3 mice), (ii) atractylodin-treated group, and (iii) β-eudesmol-treated group. For atractylodin and β-eudesmol-treated groups, animals were fed with 100 mg/kg body weight of each compound for 1, 7, 14, and 21 (3 mice for each dose). Experiments were performed under the guidelines for the care and use of laboratory animals in a controlled environment of 12 h dark/light cycle, temperature 22 ± 2 °C, and relative humidity 30–70% at the Thammasat University Animal Center. Animals were observed daily for changes in signs and symptoms by a veterinarian. Mice were allowed access to the food pellets and water ad libitum.
(§3) Total mRNA was extracted from mouse livers using Trizol according to the manufacturer’s instructions. The concentration of mRNA was quantified by a nanodrop spectrophotometer. The First-Strand cDNA Synthesis Kit was used to generate cDNA from RNA. The CFX96 Touch Real-Time PCR Detection System was used to determine the expressions of mCYP1A2, mCYP3A11, and β-actin genes using the iTaq Universal SYBR Green Supermix. The PCR condition and the delta-delta Ct calculation were according to the previously described article. All primers used in this study were synthesized by Gibthai Co. Ltd. (Bangkok, Thailand).

mCYP3A11 mRNA = experiment: ex vivo mCYP3A11 mRNA expression in mouse livers (real-time PCR); settings: male ICR mice, daily oral 100 mg/kg body weight, vs control
Source text: as §2, §3

mCYP3A11 = experiment: ex vivo mCYP3A11 activity in mouse liver microsomes (nifedipine oxidation); settings: daily oral 100 mg/kg body weight
Source text: Phenacetin and nifedipine are substrates of CYP1A2 and CYP3A11, respectively. Both substrates are converted via the CYP enzyme to paracetamol and dehydronefedipine, respectively. The concentrations of paracetamol and dehydronefedipine were used to determine the activities of mCYP1A2 and mCYP3A11. The effects of atractylodin and β-eudesmol on mCYP1A2 and mCYP3A11 activities were, respectively, determined by measuring paracetamol (mCYP1A2-dependent metabolite) and dehydronifiedipine (mCYP3A11-dependent metabolite) concentrations.
as §2
Mouse liver samples were cut into small pieces, and the liver microsomes were prepared as described previously. The concentrations of proteins in the microsomes were determined using Pierce™ BCA Protein Assay Kit. mCYP1A2 and mCYP3A11 activities were evaluated based on phenacetin O-deethylation and nifedipine oxidation activities, respectively. The incubation mixture of 500 µL consisted of microsomes, substrate ([…]), and NADPH. […] The final organic solvent concentration in the incubation mixture was not higher than 1%. Each experiment was repeated three times (duplicated each). Determination of the concentrations of metabolites of mCYP1A2 (paracetamol) and mCYP3A11 (dehydronifedipine) in the reaction was performed using HPLC Agilent 1260 Infinity II with mobile gradient phase between methanol and distilled water at an initial ratio of 20:80 (v:v) and UV detection (240 nm). Calibration curves for both CYP450 activities were created over a concentration range of 1–50 µM. Oxidized nifedipine concentrations were determined using HPLC as follows: UV detection at 235 nm with an isocratic mobile phase consisting of methanol and distilled water (70:30, v:v). […] In each analytical batch, quality control (QC) samples were run in duplicate at low, medium, and high concentrations. Acceptance criteria were four out of six QC analyses falling within 100 ± 15% of the nominal values.

rCYP2C19, sequence (P33261 whole entry): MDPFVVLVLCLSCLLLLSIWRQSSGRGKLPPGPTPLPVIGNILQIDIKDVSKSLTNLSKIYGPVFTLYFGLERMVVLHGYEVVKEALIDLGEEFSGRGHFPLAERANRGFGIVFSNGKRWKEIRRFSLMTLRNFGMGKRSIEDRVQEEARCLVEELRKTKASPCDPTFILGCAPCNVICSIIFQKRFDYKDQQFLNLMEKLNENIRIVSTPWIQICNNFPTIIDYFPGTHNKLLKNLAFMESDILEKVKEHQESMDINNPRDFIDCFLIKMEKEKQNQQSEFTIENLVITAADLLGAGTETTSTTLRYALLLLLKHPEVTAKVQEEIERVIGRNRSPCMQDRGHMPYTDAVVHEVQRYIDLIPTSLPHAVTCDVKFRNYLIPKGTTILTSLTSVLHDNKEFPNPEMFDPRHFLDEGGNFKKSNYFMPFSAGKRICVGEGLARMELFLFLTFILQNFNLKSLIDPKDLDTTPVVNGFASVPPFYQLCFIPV

## C/C=C/C#CC#C/C=C/c1ccco1 [Atractylodin]
rCYP2C19; median (range)
  Median IC50 (Range) rCYP2C19: >125 µg/mL
rCYP2C19; read-out: Median IC50 (Range) rCYP2C19, median (range)
  IC50: > 686 µM
rCYP2D6; median (range)
  Median IC50 (Range) rCYP2D6: >125 µg/mL
rCYP2D6; read-out: Median IC50 (Range) rCYP2D6, median (range)
  IC50: > 686 µM
rCYP3A4; median (range)
  Median IC50 (Range) rCYP3A4: >125 µg/mL
rCYP3A4; read-out: Median IC50 (Range) rCYP3A4, median (range)
  IC50: > 686 µM
mCYP1A2 mRNA; 1 day, 100 mg/kg
  Fold-changes of mCYP1A2 mRNA levels: 1.6 fold
mCYP1A2 mRNA; 1 day, listed as Atactylodin, 100 mg/kg
  Fold-changes of mCYP1A2 mRNA levels: 1.60 fold
mCYP1A2 mRNA; 7 days, 100 mg/kg
  Fold-changes of mCYP1A2 mRNA levels: 1.2 fold
mCYP1A2 mRNA; 7 days, listed as Atactylodin, 100 mg/kg
  Fold-changes of mCYP1A2 mRNA levels: 1.20 fold
mCYP1A2 mRNA; 14 days
  Fold-changes of mCYP1A2 mRNA levels: 0.89 fold
mCYP1A2 mRNA; 21 days
  Fold-changes of mCYP1A2 mRNA levels: 0.71 fold
mCYP3A11 mRNA; 1 day
  Fold-changes of mCYP3A11 mRNA levels: 1.72 fold
mCYP3A11 mRNA; 7 days
  Fold-changes of mCYP3A11 mRNA levels: 1.3 fold
mCYP3A11 mRNA; 14 days
  Fold-changes of mCYP3A11 mRNA levels: 0.87 fold
mCYP3A11 mRNA; 21 days
  Fold-changes of mCYP3A11 mRNA levels: 0.62 fold
mCYP3A11; 1 day, control 6.70, 100 mg/kg
  Dehydronifedipine concentration (mCYP3A11 activity): significant reduction
mCYP3A11; 1 day, control 6.70, listed as Atactylodin, 100 mg/kg
  Dehydronifedipine concentration (mCYP3A11 activity): 5.35 µM
mCYP3A11; 7 days, control 6.90, 100 mg/kg
  Dehydronifedipine concentration (mCYP3A11 activity): significant reduction
mCYP3A11; 7 days, control 6.90, listed as Atactylodin, 100 mg/kg
  Dehydronifedipine concentration (mCYP3A11 activity): 5.20 µM
mCYP3A11; 14 days, control 7.55, 100 mg/kg
  Dehydronifedipine concentration (mCYP3A11 activity): significant reduction
mCYP3A11; 14 days, control 7.55, listed as Atactylodin, 100 mg/kg
  Dehydronifedipine concentration (mCYP3A11 activity): 6.10 µM
mCYP3A11; 21 days, control 7.75, 100 mg/kg
  Dehydronifedipine concentration (mCYP3A11 activity): significant reduction
mCYP3A11; 21 days, control 7.75, listed as Atactylodin, 100 mg/kg
  Dehydronifedipine concentration (mCYP3A11 activity): 3.75 µM

## C=C1CCC[C@]2(C)CC[C@@H](C(C)(C)O)C[C@@H]12 [β-Eudesmol]
rCYP2C19; Median IC50 (Range) rCYP2C19, median (range)
  IC50: 173 µM
rCYP2D6; Median IC50 (Range) rCYP2D6, median (range)
  IC50: > 562 µM
rCYP3A4; Median IC50 (Range) rCYP3A4, median (range)
  IC50: 219 µM
mCYP1A2 mRNA; 1 day
  Fold-changes of mCYP1A2 mRNA levels: 2.63 fold
mCYP1A2 mRNA; 7 days
  Fold-changes of mCYP1A2 mRNA levels: 1.44 fold
mCYP1A2 mRNA; 14 days
  Fold-changes of mCYP1A2 mRNA levels: 1.37 fold
mCYP1A2 mRNA; 21 days
  Fold-changes of mCYP1A2 mRNA levels: 0.91 fold
mCYP3A11 mRNA; 1 day, 100 mg/kg
  Fold-changes of mCYP3A11 mRNA levels: 2.18 fold
mCYP3A11 mRNA; 7 days, 100 mg/kg
  Fold-changes of mCYP3A11 mRNA levels: 1.5 fold
mCYP3A11 mRNA; 7 days, listed as β‐eudesmol, 100 mg/kg
  Fold-changes of mCYP3A11 mRNA levels: 1.50 fold
mCYP3A11 mRNA; 14 days
  Fold-changes of mCYP3A11 mRNA levels: 0.96 fold
mCYP3A11 mRNA; 21 days
  Fold-changes of mCYP3A11 mRNA levels: 0.78 fold
mCYP3A11; 1 day, control 6.70
  Dehydronifedipine concentration (mCYP3A11 activity): 6.90 µM
mCYP3A11; 7 days, control 6.90
  Dehydronifedipine concentration (mCYP3A11 activity): 7.5 µM
mCYP3A11; 14 days, control 7.55, listed as β-eudesmol, 100 mg/kg
  Dehydronifedipine concentration (mCYP3A11 activity): significantly reduced
mCYP3A11; 14 days, control 7.55, listed as β‐eudesmol, 100 mg/kg
  Dehydronifedipine concentration (mCYP3A11 activity): 4.00 µM
mCYP3A11; 21 days, control 7.75, listed as β-eudesmol, 100 mg/kg
  Dehydronifedipine concentration (mCYP3A11 activity): significantly reduced
mCYP3A11; 21 days, control 7.75, listed as β‐eudesmol, 100 mg/kg
  Dehydronifedipine concentration (mCYP3A11 activity): 3.20 µM
